Consider one compound from article PMC6599804, “N^ɛ-acetyl lysine derivatives with zinc binding groups as novel HDAC inhibitors” (Royal Society Open Science, 2019).

Read-outs that look alike come from different tables or passages of the source.

For data set [1], the system named is HDACⅡa. In words: HDAC subtype selectivity assay with subtype substrate, HDACⅡa. In kind it is biochemical, human. Particulars: 1μM; Hela nuclear extract; substrate of corresponding subtype. The source says: (§1) against both tumor cells and normal cells, then calculate and compare their selective index.” […]
(§2) of Supporting Information.
(§3) Reponses to Reviewer 2’s comments
(§4) Reviewer 2 is also very positive about the manuscript. We thank the reviewer for the helpful comments and careful reading of the manuscript. Our changes and/or responses are detailed below.
(§5) Comment 1: “Should add some discussion about whether the synthesized compounds intend to be pan- or specific- HDAC inhibitors.”
(§6) S1 of Supporting Information.
(§7) Comment 2: “ The cellular data is just described for the acetylation level of tubulin which is only relevant […]
(§8) And then incubation at 37℃ for 1h, the mixture was stopped by the addition of 50 μL of Buffer B (200mM HCl/300 mM Acetic acid), fluorescence intensity was measured using a microplate reader at excitation and emission wavelengths of 360 nm and 460 nm. The inhibition ratios were calculated from the fluorescence intensity readings of tested wells relative to those of control wells, […]
(§9) The rate of cell survival under the action of test substances was evaluated by an improved MTS assay as previously described. […]
(§10) 48 hours 5ul of MTS reagent solution was added into each well and the cells were incubated for another 4 hours at 37℃ under 5% CO2 environment. The absorbance was measured at 490 nm in […]

Data set [2] concerns cellular HDACs in A549 cells. Briefly: Western blotting of acetylation levels of histone H3 and α-tubulin in A549 cells. Particulars: 50, 100 and 200 µM for 24 h. Type of data set: cell-based, human. Here is the method:
(§11) Therefore, hydroxamic acid 18c was engaged in western blotting analysis to evaluate the acetylation levels of histone H3 and α-tubulin.
(§12) Figure 3. […]
(§13) a Microplate to determine the cell viability. The absorbance was directly proportional to the number of viable cells. All experiments were done in triplicate. […]
(§14) calculate and compare their selective index.
(§15) Respectively, A549 and K562 cells were harvested with three different concentrations of […]
(§16) DMEM with 10% FBS (fetal bovine serum) for 24 hours. DMSO was used as the control. Later the cell pellets were collected by centrifuge at 1000 rpm for 5 minutes and then washed by ice-cold PBS (phosphate-buffered saline) twice. The PBS solution was drained and the cell pellets were re-suspended with ice-cold cell lysate buffer (50 mM Tis-HCl PH=7.4, 150 mM NaCl, 1 mM EDTA, 10% glycerin, 1% tirtion 100 and protease inhibitors cocktail) and Vortex blending five times for 30 seconds each over a period of 30 minutes kept on ice. The samples were later centrifuged at 12,000×g for 10 minutes at 4 °C and the supernatants in each tube were collected and placed in a fresh tube kept on ice. BCA (bicinchoninic acid) assay was used to determine the total protein amount. […]
(§17) were removed by washing and a secondary antibody conjugated to an enzyme, a fluorophore was used for detection. The detected signal from the protein: antibody: antibody complex was […]
In general terms: In western blotting, separated proteins are transferred to a membrane and probed.

In data set [3] the test system is cellular HDACs in K562 cells. Briefly: Western blotting of acetylation levels of histone H3 and α-tubulin in K562 cells. In kind it is cell-based, human. Particulars: 50, 100 and 200 µM for 24 h. How it is done: as §11, §12, §13, §14, §15, §16, §17
Data set [4] has as its system HDACⅠ. Briefly: HDAC subtype selectivity assay with subtype substrate, HDACⅠ. Type of data set: biochemical, human. The conditions noted are these: 1μM; Hela nuclear extract; substrate of corresponding subtype.
Text: as §1, §2, §3, §4, §5, §6, §7, §8, §9, §10

Data set [5] has as its system HEK293. In words: MTS cell proliferation assay, HEK293 (non-cancerous kidney cell). In kind it is cell-based. How it is done: (§18) Because of the great anti-tumour potential of HDAC inhibitors, we did the antiproliferative evaluation of 18c against K562 cells, A549 cells and HepG2 cells using MTS assay as previously described. […]
(§19) The rate of cell survival under the action of test substances was evaluated by an improved MTS assay as previously described. In brief, A549 (5000 cells / well) , HepG2 (5000 cells / well), HEK293 (5000 cells / well) and K562 (1 ×10^4 cells/well) cell lines were seeded into 96-well plates in 100 µL medium. After overnight incubation, each well was added with different […]
as §10, §13
(§20) calculate and compare their selective index. […]
(§21) Unbound antibodies
A general note: Formazan colour is commonly taken as a measure of viable cells.

In data set [6] the test system is A549 cells. Briefly: MTS cell proliferation assay, A549. In kind it is cell-based, human. How it is done: as §18, §19, §10, §13, §20, §21
Data set [7] concerns HepG2 cells. Briefly: MTS cell proliferation assay, HepG2. In kind it is cell-based, human. Here is the method:
as §18, §19, §10, §13, §20, §21

In data set [8] the target is T1, HDAC8 (Homo sapiens, UniProt Q9BY41).
T1 construct: Hela nuclear extract; endogenous in cells; host or cells: HeLa nuclear extract
T1 sequence (Q9BY41 1-377): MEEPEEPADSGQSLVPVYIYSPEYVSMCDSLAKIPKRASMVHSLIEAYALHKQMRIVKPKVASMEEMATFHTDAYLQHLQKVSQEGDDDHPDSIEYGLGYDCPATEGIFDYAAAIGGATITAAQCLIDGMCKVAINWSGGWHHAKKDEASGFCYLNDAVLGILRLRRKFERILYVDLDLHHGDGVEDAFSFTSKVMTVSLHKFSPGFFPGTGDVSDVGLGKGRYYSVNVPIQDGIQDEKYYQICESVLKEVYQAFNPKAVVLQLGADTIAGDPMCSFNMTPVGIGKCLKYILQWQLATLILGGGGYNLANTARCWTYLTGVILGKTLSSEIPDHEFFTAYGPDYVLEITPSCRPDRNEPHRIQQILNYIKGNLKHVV
Briefly: HDAC subtype selectivity assay with subtype substrate, HDAC8. Type of data set: biochemical. Particulars: 1μM; Hela nuclear extract; substrate of corresponding subtype; read-out: HDAC Inhibition (%) HDAC8.

Data set [9] relates to HDACs (HeLa nuclear extract). Briefly: HDAC deacetylation inhibition assay, HeLa nuclear extract with BOC-Ac-Lys-AMC substrate. Type of data set: biochemical, human. Here is the method:
With these N^ɛ-acetyl lysine derivatives in hand (schemes 1–3), we then did the pilot screening for general HDAC inhibitory activity at a compound's concentration of 100 µM. All tested compounds were subjected to the inhibition assay against the HDAC deacetylation reaction by using a HeLa nuclear extract as a source of HDACs and BOC-Ac-Lys-AMC as a substrate.
HDACS inhibition assay in vitro
In vitro HDACs inhibition assays were conducted as previously described. In brief, 4 μL of […]
(1μL), then fluorogenic substrate Boc-Lys(acetyl)-AMC (100 μM) and Buffer A (50 mM Tis-HCl pH=8.0, 150 mM NaCl, 30 mM KCl, 10 mM MgCl2) were added. After incubation at 37℃ for 1h, […]
as §8
regression analysis of the concentration/inhibition data. All experiments were done in triplicate. […]

Data set [10] deals with K562 cells. Briefly: MTS cell proliferation assay, K562. In kind it is cell-based, human. How it is done:
as §18, §19, §10, §13, §20, §21

Setting [11] is: Homo sapiens, MTS assay, 48 hours.
Setting [12] is: concentration range of 10–500 µM, MTS.

For the compound `O=C(CCCCCCC(=O)NCCCC[C@H](NC(=O)OCc1ccccc1)C(=O)Nc1ccccc1)NO` [Compound 18c], the “HDAC Inhibition (%) HDACⅡa” value in data set [1] is on record as 16.65±2.690%. Also, the “acetylation levels of histone H3 and α-tubulin” value in [2] and in [3] was “dose-dependent increase” throughout. For the same compound, the “HDAC Inhibition (%) HDACⅠ” value in data set [4] is listed as 61.06±1.064%. The concentration for half-maximal inhibition (IC50) in [5] (Homo sapiens, HEK293, MTS assay, 48 hours, normal cells) was over 500 µM; in data set [6] (setting [11]) it was 134 ± 2.13 µM; in data set [7] (setting [11]) it was 158 ± 2.2 µM; in data set [9] (BOC-Ac-Lys-AMC substrate, read-out: IC50 values, HeLa nuclear extract) it was 0.5 ± 0.21 µM; in data set [9] (as restated in the conclusion, read-out: IC50 value), about 0.5 µM; in [10] (setting [11]), 41.2 ± 1.73 µM. The “selectivity index (SI)” value in [5] (normal cells (HEK293) versus tumor cells (K562, A549, HepG2) IC50s) is listed as 3.16~12.14. Also, in [5] (same concentrations (5 µM and 10 µM), MTS), the “toxicity in non-cancerous kidney cell (HEK293) compared with SAHA (1)” value is recorded as “less toxicity”. For the same compound, the “concentration showing antiproliferative activity comparable to SAHA (1) at 10 µM” value is 50 to 100 µM in [6] (MTS), 200 µM in data set [7] (MTS) and 50 to 100 µM in [10] (MTS). For the same compound, the antiproliferative activity entry in [6] (setting [12]), in [7] (setting [12]) and in data set [10] (setting [12]) was “dose-dependent manner” throughout. Besides, the inhibition at 1 µM in data set [8] worked out at 38.3 ± 1.22%. For the same compound, the “HDAC inhibition (%)” value in [9] (compound at 100 µM, BOC-Ac-Lys-AMC substrate) is given as 109.2 ± 0.5%.

A word on the IC50: it is the midpoint of a concentration-inhibition curve. Usually inhibition stands for the share of the control response that was lost under treatment.
